Data from PubChem BioAssay (NCI).
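Cells were grown in 96-well plates and exposed to each compound for 48 hours at five concentrations; endpoints were interpolated linearly between bracketing concentrations, or set to the highest concentration if not reached. TGI denotes the concentration required for complete inhibition of growth.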

What was measured:
Assay in all cases: NCI-60 cell line screen, 48 h
[1] = tested on: HOP-92 NSCLC
[2] = tested on: LOX IMVI melanoma
[3] = tested on: RXF 393 renal
[4] = tested on: CCRF-CEM leukemia
[5] = tested on: COLO 205 colon
[6] = tested on: EKVX NSCLC
[7] = tested on: HCT-116 colon
[8] = tested on: BT-549 breast
[9] = tested on: PC-3 prostate

SMILES	TGI [1] [µM]	TGI [2] [µM]	TGI [3] [µM]	TGI [4] [µM]	TGI [5] [µM]	TGI [6] [µM]	TGI [7] [µM]	TGI [8] [µM]	TGI [9] [µM]
O=C1NC2OC(CO)C(O)C(O1)C2O (configuration not stated)	> 100	> 100	> 100	> 100	> 100	> 100			
O=C(Cc1ccccc1)NN1C(=O)/C(=C\c2ccc([N+](=O)[O-])cc2)SC1=Nc1ccccc1	> 100		> 100	> 100	> 100	> 100	> 100		
Cc1cccc(C)c1NC(=O)C(=O)C1C(=O)NC(=O)NC1=O	> 100	> 100	> 100	> 100	> 100	> 100	> 100		
CSC(C1c2ccccc2N(c2ccc(C)cc2)C2=NC(=O)N(C)C(=O)C21Cl)S(=O)(=O)c1ccc(C)cc1 (configuration not stated)	27.9	40.3		38	36.6	> 100	25.7		
COc1c(Br)cc(CC(N)=O)c(O)c1Br	> 100	> 100	> 100	> 100	> 100	> 100	> 100		
CC(=O)OCC(OC(C)=O)C1C[C@H]2O[C@@H]3[C@H](C[C@H]2O1)O[C@@]1(C[C@@H]3C)C[C@H](C)[C@@H]2O[C@]3(C[C@@H]2O1)C[C@H]1O[C@H]2[C@H](C)[C@H]4OC(=O)CC5CC[C@H]6OC7[C@H]8O[C@]9(CC[C@H]%10CC(O)(CO)[C@H](CC[C@H]%11C[C@@H](C)C(O)(CO)C(C[C@@H]4O[C@H]2C[C@H]1O3)O%11)O%10)CC8O[C@@H]7[C@@H](O9)[C@H]6O5 (some centres not stated)	> 1	> 0.414		> 1	0.0696	> 1	> 0.452	0.00923	> 1
COC(=O)C1CC2(c3ccccc3)C(=O)c3ccccc3N2O1 (configuration not stated)	> 100	81.7		> 100	> 100	> 100	> 100		
COC1(OC)CCCCC2c3cccc(OC(C)=O)c3C21OC(C)=O (configuration not stated)		> 100		> 100	> 100	> 100	> 100		
O=C(Nc1cccc(O)c1)C(=O)C(C(=O)c1ccccc1F)C1OC(=O)c2ccccc21 (configuration not stated)	> 100	47.1	39.8	68.5	48.3	> 100	33.9		
Nc1ccc2[nH]c(-c3cccc(Cl)c3)cc(=O)c2c1	9.69			> 100	> 100	> 100		> 100	> 100
O=C(N/N=C/c1cc(Br)cc(Br)c1[O-])c1ccccc1O.O=C(N/N=C/c1cc(Br)cc(Br)c1[O-])c1ccccc1O.[Fe+2]	6.89	22.7	20.6	24.9	35.8	50.3	10.6		
O=C(O)C(CS)N=c1c2ccccc2n(O)c2ccccc12 (configuration not stated)		> 100		> 100	> 100	> 100	> 100		
CCCCN=C(NC#N)NCCCC	> 100		> 100		98.9	> 100	> 100		
NC(N)=Nc1ncccc1[N+](=O)[O-]	> 100	> 100	> 100	> 100	57.2		> 100		
CCOC(=O)C1=C(OC(OCC)C(CC)[Se]c2ccccc2)CCCC1 (configuration not stated)	46	18.7	37.7	38.7	> 100	78.9	45		
COc1ccc(-c2c(C#N)c(N)nc3c2CCS(=O)(=O)c2ccccc2-3)cc1	> 100	> 100		> 100	> 100		> 100	> 100	> 100
O=C(O)C(CO)NC(=O)n1c2ccccc2c2ccccc21 (configuration not stated)	> 100	> 100	> 100	> 100	> 100	> 100	> 100		
COC(=O)c1c/c(=N\NC(=O)CC(=O)Nc2ccccc2OC)c2ccccc2o1		> 100			> 100	> 100	> 100		
CN(C)S(=O)(=O)Nc1nnc(S(N)(=O)=O)s1	> 100		> 100		> 100	> 100	> 100	> 100	> 100
CCN1CCC(O)(C(C(=O)O)c2ccccc2)CC1 (configuration not stated)		> 100	> 100	> 100	> 100	> 100		> 100	> 100
COC(=O)/C(=N/NC(=O)C[N+](C)(C)C)C(C(=O)OC)C(=O)C(=O)Nc1ccc(F)cc1 (configuration not stated)		> 100	> 100	> 100	> 100	> 100	> 100		
